Assay results taken from the supplement of paper PMC10331698.
± gives the standard deviation of the averaged measurements.

Assays:
Assay in all cases: level (log10 ratio to DMSO vehicle control); higher = higher biomarker level / cell amount than vehicle control
Methotrexate = compound: CN(Cc1cnc2nc(N)nc(N)c2n1)c1ccc(C(=O)N[C@@H](CCC(=O)O)C(=O)O)cc1 [Methotrexate]; settings: in DMSO
Protocol: (§1)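 BioMAP Diversity Plus panel of 12 human primary cell co-culture systems (3C, 4H, LPS, SAg, BT, BF4T, BE3C, CASM3C, HDF3CGF, KF3CT, MyoF, Mphg). Compounds were added 1 h before stimulation and left for 24 h (MyoF 48 h; BT 72 h for soluble read-outs or 6 d for IgG). Biomarkers were read by ELISA, cytotoxicity by SRB, PBMC viability and proliferation by Alamar Blue. Each well value was divided by the mean of 8 DMSO control wells on the same plate and log10 transformed; duplicate blinded samples were tested at 4 concentrations.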

[1] = compound: O=P(O)(O)CCC(F)(F)C(F)(F)C(F)(F)C(F)(F)C(F)(F)C(F)(F)F [2-(Perfluorohexyl)ethylphosphonic acid]; settings: in DMSO
Protocol: as §1

[2] = compound: OCC(F)(F)C(F)(F)C(F)(F)C(F)(F)C(F)(F)C(F)(F)C(F)(F)C(F)(F)CO [1H,1H,10H,10H-Perfluorodecane-1,10-diol]; settings: in DMSO
Protocol: as §1

[3] = compound: Cc1ccc(S(=O)(=O)OCC(F)(F)C(F)(F)C(F)(F)C(F)(F)C(F)(F)C(F)F)cc1 [1H,1H,7H-Perfluoroheptyl 4-methylbenzenesulfonate]; settings: in DMSO
Protocol: as §1

[4] = compound: FC(F)(F)C(F)(F)C(F)(F)C(F)(F)CCI [1H,1H,2H,2H-Perfluorohexyl iodide]; settings: in DMSO
Protocol: as §1

[5] = compound: C=CC(=O)OCC(F)(F)C(F)(F)C(F)(F)C(F)(F)COC(=O)C=C [1H,1H,6H,6H-Perfluorohexane-1,6-diol diacrylate]; settings: 6700 nM; in DMSO
Protocol: as §1

[6] = compound: O=C(O)C(F)(F)C(F)(F)C(F)(F)C(F)(F)C(F)(F)C(F)(F)C(F)(F)F [Ammonium perfluorooctanoate]; settings: in DMSO
Protocol: as §1

Test System	level (log10) (Methotrexate; 1500 nM)	level (log10) (Methotrexate; 4400 nM)	level (log10) (Methotrexate; 13000 nM)	level (log10) (Methotrexate; 40000 nM)	level (log10) ([1]; 6700 nM)	level (log10) ([1]; 20000 nM)	level (log10) ([1]; 60000 nM)	level (log10) ([2]; 6700 nM)	level (log10) ([2]; 20000 nM)	level (log10) ([2]; 60000 nM)	level (log10) ([3]; 6700 nM)	level (log10) ([3]; 20000 nM)	level (log10) ([3]; 60000 nM)	level (log10) ([4]; 6700 nM)	level (log10) ([4]; 20000 nM)	level (log10) ([4]; 60000 nM)	level (log10) [5]	level (log10) ([6]; 6700 nM)	level (log10) ([6]; 20000 nM)	level (log10) ([6]; 60000 nM)
LPS:CXCL8/IL-8	-0.015 ± 0.0085	-0.001 ± 0.013	0.0045 ± 0.0021	0.0055 ± 0.013	-0.023 ± 0.024	-0.0235 ± 0.0021	0.0375 ± 0.054	-0.0065 ± 0.023	0.006 ± 0.0042	0.051	0.0265 ± 0.015	0.008 ± 0.014	0.0195 ± 0.0021	0.008 ± 0.034	0.021 ± 0.033	0.0375 ± 0.057	-0.0205 ± 0.028	0.017 ± 0.0042	0.038 ± 0.013	0.047 ± 0.027
LPS:IL-1alpha	-0.003 ± 0.024	0.003 ± 0.017	0.005 ± 0.031	0.0465 ± 0.077	0.0055 ± 0.0092	-0.026 ± 0.014	-0.0195 ± 0.087	0.0225 ± 0.033	0.027 ± 0.016	0.066	-0.018 ± 0.017	-0.006 ± 0.0042	-0.039 ± 0.0085	-0.0045 ± 0.032	-0.034 ± 0.047	0.051 ± 0.044	-0.0065 ± 0.015	0.019 ± 0.0042	0.0045 ± 0.00071	-0.034 ± 0.024
LPS:M-CSF	0.0235 ± 0.005	0.0035 ± 0.019	0.0235 ± 0.0035	-0.0065 ± 0.03	-0.0175 ± 0.074	0.0055 ± 0.043	0.0255 ± 0.019	-0.018 ± 0.024	-0.013	0.011	-0.019 ± 0.033	-0.026 ± 0.0057	0.008 ± 0.03	0.002 ± 0.0042	0 ± 0.0099	-0.0055 ± 0.028	-0.021 ± 0.021	0.0145 ± 0.023	0.005 ± 0.031	0.007 ± 0.018
LPS:SRB	-0.0005 ± 0.013	0.001	0.0015 ± 0.00071	0.005 ± 0.011	-0.003 ± 0.0057	-0.006 ± 0.0028	-0.023 ± 0.021	0.0005 ± 0.016	-0.012 ± 0.017	-0.042	0.006 ± 0.0099	-0.0075 ± 0.00071	-0.031 ± 0.0042	0.019 ± 0.023	0.0125 ± 0.035	0.007 ± 0.024	-0.0065 ± 0.0092	-0.006 ± 0.0071	-0.0065 ± 0.00071	-0.0245 ± 0.005
